Assay results from US20230293535A1, “ERBB/BTK INHIBITORS” (Dizal (Jiangsu) Pharmaceutical Co., Ltd., priority 2018, published 2023).

Legend:
Assay type in all cases: cell-based
[1] = biological target: T1, human EGFR exon 20 H773_V774insNPH (Homo sapiens, UniProt P00533, INS773NPH); assay: EGFR Exon20 NPH insertion cellular phosphorylation inhibition (MSD pEGFR Y1068/total EGFR); settings: Ba/F3 EGFR NPH ins cells, 4 h compound, p-EGFR(Y1068)/total EGFR;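 note: IL3-independent Ba/F3 cells with constitutively phosphorylated EGFR, compound exposure at 37 °C under 5% CO2, electrochemiluminescent MSD measurement of the p-EGFR to total EGFR ratio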
T1 construct: host or cells: Ba/F3
Protocol: (§1) One day before the test, WT or mutant cells were seeded in 96 well plates at appropriate concentrations with corresponding growth media supplemented with 1% FBS, and incubated overnight. The next day, tested compounds at a series of concentrations were added into each individual well of the plates, and the plates were incubated for 4 h at 37° C. with 5% CO2.
The EGFR (Y1068) phosphorylation level (activity) of cells in each well were then measured with MSD kit named “MULTI-SPOT®96 4-Spot HB Prototype EGFR Triplex [sequence]: pEGFR(Tyr1068),pEGFR(Tyr1173), Total EGFR” according to the manufacturer’s instruction (MESO SCALE DISCOVERY, Cat# N45ZB-1). The assay is an electrochemiluminescent method for determining both phosphorylated and total EGFR of cells with an MSD SECTOR® Imager and the ratio of p-EGFR/total EGFR can be generated by the machine.

[2] = biological target: T2, human EGFR exon 20 V769_D770insASV (Homo sapiens, UniProt P00533, INS769ASV); assay: EGFR Exon20 ASV insertion cellular phosphorylation inhibition (MSD pEGFR Y1068/total EGFR); settings: Ba/F3 EGFR ASV ins cells, 4 h compound, p-EGFR(Y1068)/total EGFR;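 note: electrochemiluminescent readout on an MSD SECTOR Imager, IL3-independent transduced cells in medium with 1% FBS, compound concentration series at 37 °C and 5% CO2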
T2 construct: expressed in transfected cells; host or cells: Ba/F3 (DSMZ ACC-300), lentiviral transduction, puromycin selection, IL3 depletion
T2 sequence (P00533 with tags, fused parts or gaps INS769ASV): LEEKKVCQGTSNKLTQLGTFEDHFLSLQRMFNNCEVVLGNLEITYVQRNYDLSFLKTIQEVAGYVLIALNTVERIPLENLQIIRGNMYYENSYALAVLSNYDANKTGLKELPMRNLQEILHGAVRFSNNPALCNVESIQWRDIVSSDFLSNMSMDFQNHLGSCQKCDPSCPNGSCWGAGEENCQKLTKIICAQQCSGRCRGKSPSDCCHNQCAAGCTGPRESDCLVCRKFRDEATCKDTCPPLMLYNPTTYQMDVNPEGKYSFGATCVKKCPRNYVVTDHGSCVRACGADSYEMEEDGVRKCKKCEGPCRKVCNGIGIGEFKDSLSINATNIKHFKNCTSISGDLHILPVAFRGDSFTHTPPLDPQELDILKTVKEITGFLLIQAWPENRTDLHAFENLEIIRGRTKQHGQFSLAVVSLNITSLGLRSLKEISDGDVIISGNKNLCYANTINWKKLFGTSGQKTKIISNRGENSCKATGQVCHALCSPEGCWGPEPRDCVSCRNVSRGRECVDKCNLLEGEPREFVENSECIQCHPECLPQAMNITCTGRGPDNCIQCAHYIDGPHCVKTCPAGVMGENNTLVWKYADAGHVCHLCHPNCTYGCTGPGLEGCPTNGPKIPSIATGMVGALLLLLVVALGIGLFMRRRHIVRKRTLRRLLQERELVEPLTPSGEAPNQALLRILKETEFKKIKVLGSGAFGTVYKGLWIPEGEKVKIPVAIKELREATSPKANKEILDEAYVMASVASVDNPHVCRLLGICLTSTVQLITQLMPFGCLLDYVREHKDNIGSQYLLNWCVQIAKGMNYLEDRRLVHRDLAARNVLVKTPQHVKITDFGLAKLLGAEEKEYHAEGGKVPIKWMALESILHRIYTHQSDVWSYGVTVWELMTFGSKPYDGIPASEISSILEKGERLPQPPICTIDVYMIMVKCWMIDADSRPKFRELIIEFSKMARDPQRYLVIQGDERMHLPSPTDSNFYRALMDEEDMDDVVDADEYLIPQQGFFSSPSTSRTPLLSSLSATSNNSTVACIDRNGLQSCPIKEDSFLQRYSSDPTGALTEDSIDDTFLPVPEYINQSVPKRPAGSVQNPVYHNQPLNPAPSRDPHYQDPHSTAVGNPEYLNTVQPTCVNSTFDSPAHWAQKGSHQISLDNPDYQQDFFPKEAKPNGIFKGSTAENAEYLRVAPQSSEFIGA

EGFR L858R&T790M = biological target: T3, EGFR L858R&T790M (Homo sapiens, UniProt P00533, L858R/T790M); assay: EGFR L858R and T790M cellular phosphorylation inhibition in NCI-H1975 (MSD); settings: NCI-H1975 cells, 4 h compound, p-EGFR(Y1068)/total EGFR; read-out: EGFR L858R and T790M mutation IC50;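 note: phosphorylated and total EGFR detected by electrochemiluminescence, cells exposed to compound in medium containing 1% FBS at 37 °C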
T3 construct: host or cells: NCI-H1975
T3 sequence (P00533 25-1210 T790M/L858R): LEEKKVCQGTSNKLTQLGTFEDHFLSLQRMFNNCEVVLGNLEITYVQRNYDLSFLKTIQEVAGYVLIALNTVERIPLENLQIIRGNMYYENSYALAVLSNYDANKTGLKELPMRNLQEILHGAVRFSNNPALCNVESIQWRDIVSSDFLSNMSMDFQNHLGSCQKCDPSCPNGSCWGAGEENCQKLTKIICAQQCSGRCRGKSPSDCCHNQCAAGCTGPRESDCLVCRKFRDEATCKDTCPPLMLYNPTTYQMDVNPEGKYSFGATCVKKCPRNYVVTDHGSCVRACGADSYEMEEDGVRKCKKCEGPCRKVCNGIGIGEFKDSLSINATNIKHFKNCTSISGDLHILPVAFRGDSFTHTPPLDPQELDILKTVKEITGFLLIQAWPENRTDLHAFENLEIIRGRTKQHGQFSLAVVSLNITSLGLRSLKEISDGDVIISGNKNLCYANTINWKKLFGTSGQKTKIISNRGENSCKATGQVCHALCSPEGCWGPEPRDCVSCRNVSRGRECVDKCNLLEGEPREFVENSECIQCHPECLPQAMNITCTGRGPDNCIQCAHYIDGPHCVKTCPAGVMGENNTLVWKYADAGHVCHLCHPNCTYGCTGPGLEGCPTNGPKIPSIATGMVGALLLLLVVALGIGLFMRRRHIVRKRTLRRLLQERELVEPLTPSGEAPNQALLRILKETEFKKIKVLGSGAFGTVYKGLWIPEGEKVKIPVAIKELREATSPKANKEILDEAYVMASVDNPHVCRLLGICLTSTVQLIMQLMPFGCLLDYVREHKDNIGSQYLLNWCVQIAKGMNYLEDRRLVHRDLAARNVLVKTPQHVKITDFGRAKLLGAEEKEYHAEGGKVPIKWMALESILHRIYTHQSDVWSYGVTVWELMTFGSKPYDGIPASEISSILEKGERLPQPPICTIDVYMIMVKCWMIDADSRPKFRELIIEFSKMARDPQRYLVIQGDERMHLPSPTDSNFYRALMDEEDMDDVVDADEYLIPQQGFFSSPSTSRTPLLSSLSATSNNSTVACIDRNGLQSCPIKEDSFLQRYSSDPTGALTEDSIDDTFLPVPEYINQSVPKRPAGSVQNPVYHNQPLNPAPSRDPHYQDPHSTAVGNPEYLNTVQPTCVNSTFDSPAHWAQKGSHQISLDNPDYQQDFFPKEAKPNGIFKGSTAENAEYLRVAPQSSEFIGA

[3] = biological target: T4, human Her2 exon 20 insertion mutation YVMA (Homo sapiens, UniProt P04626, INS775YVMA); assay: Her2 Exon 20 YVMA insertion cellular phosphorylation inhibition (MSD p-Her2 Y1248/total Her2); settings: Her2 YVMAins cells, 4 h compound;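 note: lentivirally transduced NIH-3T3 cells in 1% FBS medium, electrochemiluminescent MSD read-out, graded compound concentrations at 37 °C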
T4 construct: expressed in transfected cells; host or cells: NIH-3T3, lentiviral transduction, puromycin selection
T4 sequence (P04626 with tags, fused parts or gaps INS775YVMA): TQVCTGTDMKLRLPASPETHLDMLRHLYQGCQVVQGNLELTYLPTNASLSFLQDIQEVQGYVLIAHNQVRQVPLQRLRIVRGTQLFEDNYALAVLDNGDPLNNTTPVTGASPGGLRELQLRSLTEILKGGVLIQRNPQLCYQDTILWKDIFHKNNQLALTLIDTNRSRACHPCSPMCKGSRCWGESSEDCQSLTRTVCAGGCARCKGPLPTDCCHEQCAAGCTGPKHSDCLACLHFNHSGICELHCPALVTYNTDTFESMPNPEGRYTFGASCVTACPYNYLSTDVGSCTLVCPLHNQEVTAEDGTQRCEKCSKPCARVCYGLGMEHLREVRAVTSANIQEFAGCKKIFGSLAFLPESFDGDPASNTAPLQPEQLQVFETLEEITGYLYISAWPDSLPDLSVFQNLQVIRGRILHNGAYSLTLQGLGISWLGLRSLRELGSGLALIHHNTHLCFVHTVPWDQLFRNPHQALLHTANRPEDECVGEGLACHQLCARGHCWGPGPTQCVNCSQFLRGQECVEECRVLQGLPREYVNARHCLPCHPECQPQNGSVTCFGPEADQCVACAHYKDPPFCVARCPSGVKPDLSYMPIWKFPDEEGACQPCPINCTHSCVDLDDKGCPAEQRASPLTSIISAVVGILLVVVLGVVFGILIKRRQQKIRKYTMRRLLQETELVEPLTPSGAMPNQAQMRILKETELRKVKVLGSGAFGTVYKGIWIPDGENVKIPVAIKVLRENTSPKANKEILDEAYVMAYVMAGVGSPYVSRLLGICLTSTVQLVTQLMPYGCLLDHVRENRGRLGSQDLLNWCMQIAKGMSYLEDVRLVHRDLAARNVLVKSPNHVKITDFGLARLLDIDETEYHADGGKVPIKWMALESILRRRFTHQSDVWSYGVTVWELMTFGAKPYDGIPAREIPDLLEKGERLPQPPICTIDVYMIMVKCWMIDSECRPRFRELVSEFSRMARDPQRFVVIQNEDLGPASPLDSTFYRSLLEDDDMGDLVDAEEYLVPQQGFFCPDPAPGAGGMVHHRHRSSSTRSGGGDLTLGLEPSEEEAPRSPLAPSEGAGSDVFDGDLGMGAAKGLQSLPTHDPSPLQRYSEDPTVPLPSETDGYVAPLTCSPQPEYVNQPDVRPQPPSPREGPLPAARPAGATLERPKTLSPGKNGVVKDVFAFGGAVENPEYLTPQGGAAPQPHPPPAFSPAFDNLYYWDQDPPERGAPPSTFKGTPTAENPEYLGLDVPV
Protocol: The resulting cell line expressed phosphorylated Her2 protein and its proliferation depended on the mutation gene, which could be used for in vitro PD and anti-proliferation assays.
as §1
The EGFR (Y1068) phosphorylation level (activity) of cells in each well were then measured with MSD kit named “MULTI-SPOT®96 4-Spot HB Prototype EGFR Triplex [sequence]: pEGFR(Tyr1068),pEGFR(Tyr1173), Total EGFR” according to the manufacturer’s instruction (MESO SCALE DISCOVERY, Cat# N45ZB-1). The assay is an electrochemiluminescent method for determining both phosphorylated and total EGFR of cells with an MSD SECTOR® Imager and the ratio of p-EGFR/total EGFR can be generated by the machine. The Her2 (Y1248) phosphorylation level (activity) of cells in each well were measured with MSD Kit named “Phospho-ErbB2 (Tyr1248) Assay Whole Cell Lysate Kit” according to the manufacturer’s instruction (MESO SCALE DISCOVERY, Cat# K151CLD-3). The assay is an electrochemiluminescent method (MESO SCALE DISCOVERY) for determining both phosphorylated and total Her2 of cells with an MSD SECTOR® Imager and then the ratio of p-Her2/total Her2 can be generated by the machine.

WT EGFR = biological target: T5, WT EGFR (Homo sapiens, UniProt P00533); assay: WT EGFR cellular phosphorylation inhibition in A-431 (hEGF stimulated, MSD); settings: A431 cells, 4 h compound, then 100 ng/ml hEGF 10 min;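 note: electrochemiluminescence read-out of EGFR Tyr1068 phosphorylation expressed as ratio to total EGFR, cells kept in medium with 1% FBS, compounds tested as a concentration series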
T5 construct: host or cells: A-431
T5 sequence (P00533 25-1210): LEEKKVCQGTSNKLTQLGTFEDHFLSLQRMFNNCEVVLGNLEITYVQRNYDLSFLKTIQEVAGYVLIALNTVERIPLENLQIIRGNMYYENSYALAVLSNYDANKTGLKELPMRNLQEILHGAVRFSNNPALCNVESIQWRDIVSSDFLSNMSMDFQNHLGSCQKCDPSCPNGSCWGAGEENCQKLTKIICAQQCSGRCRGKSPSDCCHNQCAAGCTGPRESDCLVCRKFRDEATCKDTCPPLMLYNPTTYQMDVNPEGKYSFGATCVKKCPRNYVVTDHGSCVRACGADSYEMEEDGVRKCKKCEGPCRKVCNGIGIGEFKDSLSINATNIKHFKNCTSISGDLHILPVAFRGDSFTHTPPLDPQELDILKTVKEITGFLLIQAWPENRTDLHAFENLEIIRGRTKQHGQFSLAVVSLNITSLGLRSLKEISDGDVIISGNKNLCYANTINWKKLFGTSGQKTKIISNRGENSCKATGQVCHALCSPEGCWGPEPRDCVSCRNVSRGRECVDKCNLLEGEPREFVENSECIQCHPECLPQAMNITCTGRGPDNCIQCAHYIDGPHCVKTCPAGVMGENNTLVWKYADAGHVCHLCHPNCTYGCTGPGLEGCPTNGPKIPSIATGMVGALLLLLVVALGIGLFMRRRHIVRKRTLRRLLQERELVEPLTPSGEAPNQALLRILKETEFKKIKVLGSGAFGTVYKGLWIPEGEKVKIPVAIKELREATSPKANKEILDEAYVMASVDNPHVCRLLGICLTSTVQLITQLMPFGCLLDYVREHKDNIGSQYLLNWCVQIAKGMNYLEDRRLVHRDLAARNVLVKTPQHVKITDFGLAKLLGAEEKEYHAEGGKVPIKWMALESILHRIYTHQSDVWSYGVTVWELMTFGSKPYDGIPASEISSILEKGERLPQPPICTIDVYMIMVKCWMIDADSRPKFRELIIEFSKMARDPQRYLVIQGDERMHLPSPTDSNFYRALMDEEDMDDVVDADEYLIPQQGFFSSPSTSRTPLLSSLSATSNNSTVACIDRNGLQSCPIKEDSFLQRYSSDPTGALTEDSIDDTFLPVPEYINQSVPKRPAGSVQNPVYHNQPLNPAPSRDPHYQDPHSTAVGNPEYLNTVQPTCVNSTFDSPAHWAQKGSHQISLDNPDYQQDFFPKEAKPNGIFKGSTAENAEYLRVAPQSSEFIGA

Ba/F3 EGFR NPH ins cells = assay: Cell proliferation, Ba/F3 EGFR NPH ins (CellTiter-Glo, 72 h); settings: Ba/F3 EGFR, 72 h, Ba/F3 EGFR NPH ins, 72 h proliferation; read-out: EGFR Exon20 NPH insertion GI50;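 note: IL3-independent cells carrying constitutively phosphorylated EGFR, compound dilution series, viable cells quantified by ATP luminescence, growth relative to DMSO wells after subtracting pre-dosing (day 0) baseline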
Protocol: Similar to recombinant human EGFR exon 20 H769_V770insASV Ba/F3 cell line, the recombinant human EGFR exon 20 H773_V774insNPH Ba/F3 cell line also expresses constitutively phosphorylated EGFR protein and proliferates in the absence of IL3, which could be used for in vitro PD and anti-proliferation assays.
WT or mutant cells were seeded in 384 well plates at appropriate concentrations with corresponding growth media supplemented with 10% FBS, for each experiment, identical plates were prepared in duplicates, and the plates were incubated overnight. On the next day, one of each duplicated plates was dosed with tested compounds at a series of concentrations, and another one of the duplicated plate was analysied for G0 value. The dosed plates were incubate for another 72 h at 37° C. with 5% CO2 and the number of viable cells in each well of the G0 plates or the dosed plates were measured by CellTiter-Glo® Luminescent Cell Viability Assay (Promega). This assay is a luminescent method for determining the number viable cells through measurement of cellular ATP concentration by detection of luciferase activity. Detection reagents (15 µl) was dispensed into per well, and the plates were incubate for 30 min at room temperature. Then, the luminescence in each well was measured using the Envision plate reader (PerkinElmer). The percentage of proliferation was calculated based on the formula: %Proliferation= 100 × (G3 value of sample well-Go value)/(G3 value of DMSO control-Go value).

Ba/F3 EGFR ASV ins cells = assay: Cell proliferation, Ba/F3 EGFR ASV ins (CellTiter-Glo, 72 h); settings: Ba/F3 EGFR, 72 h, Ba/F3 EGFR ASV ins, 72 h proliferation; read-out: EGFR Exon20 ASV insertion GI50;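 note: IL3-independent Ba/F3 cells transduced with EGFR V769_D770insASV, cellular ATP luminescence after compound exposure, growth relative to DMSO control with the day-0 baseline reading subtracted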
[4] = tested on: NCI-H1975 EGFR L858R/T790M cells; assay: Cell proliferation, NCI-H1975 EGFR L858R/T790M (CellTiter-Glo, 72 h); settings: Homo sapiens, NCI-H1975, 72 h, NCI-H1975, 72 h proliferation; read-out: EGFR L858R and T790M mutation GI50;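 note: viable cells quantified by luciferase-based ATP luminescence, proliferation expressed relative to DMSO-treated wells (100%) after subtracting a parallel plate read at the time of dosing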
[5] = tested on: Her2 exon 20 insertion YVMA transduced NIH-3T3 cell line; assay: Cell proliferation, Her2 YVMAins NIH-3T3 (CellTiter-Glo, 72 h); settings: Mus musculus, NIH3T3, 72 h, Her2 YVMAins cells, 72 h proliferation; read-out: Her2 Exon 20 YVMA insertion GI50;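 note: viable cells quantified by ATP luminescence, growth over a day-zero baseline plate expressed as percent of DMSO control growth, compound dilution series in 10% FBS medium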
WT EGFR cell line A-431 = assay: Cell proliferation, WT EGFR A431 (CellTiter-Glo, 72 h); settings: Homo sapiens, A-431, 72 h, A431, 72 h proliferation; read-out: EGFR WT A431 GI50;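 note: proliferation from a luminescent ATP viability signal, expressed as 100 × (treated minus time-zero plate) over (DMSO control minus time-zero plate), cells grown with 10% FBS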
OCI-LY-10 cells = assay: BTK (wt) cell proliferation, OCI-LY-10 (CellTiter-Glo, 72 h); settings: Homo sapiens, OCI-Ly10, 72 h, OCI-LY-10 cells, 72 h, CellTiter-Glo; read-out: BTK WT OCI-LY-10 GI50;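 note: viable cells quantified via cellular ATP luminescence, proliferation given as percent of DMSO control after subtracting a duplicate plate read at time of dosing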
TMD-8 cells = assay: BTK (wt) cell proliferation, TMD-8 (CellTiter-Glo, 72 h); settings: Homo sapiens, TMD8, 72 h, TMD-8 cells, 72 h, CellTiter-Glo; read-out: BTK WT TMD-8 GI50;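 note: viable cells quantified by ATP-based luminescence, proliferation expressed as percent of DMSO control after subtracting a time-zero baseline plate read at dosing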
Ri-1 cells = assay: BTK (wt) cell proliferation, Ri-1 (CellTiter-Glo, 72 h); settings: Ri-1, 72 h, Ri-1 cells, 72 h, CellTiter-Glo; read-out: BTK WT Ri-1 GI50;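 note: viable cells quantified as cellular ATP luminescence, proliferation normalized to a time-zero plate and the DMSO control, compounds tested across a dilution series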
Protocol: OCI-LY-10 at 3,750 cells/well, TMD-8 and Ri-1 at 2,000 cells/well, and DB at 1,250 cells/well, respectively, were sorted into 384-well plates in RPMI1640 medium with 10% FBS. After overnight incubation, all cells were incubated with compound at a series of concentrations. Meanwhile, a duplicated plate of each cell line was prepared for measuring G0 value. The dosed plates were further incubated for 72 hours and the number of viable cells was measured by CellTiter-Glo® Luminescent Cell Viability Assay (Promega), a luminescent method for determining the number of viable cells through measurement of cellular ATP concentration using Envision plate reader (PerkinElmer). The percentage of proliferation was calculated as: % Proliferation = 100 × (G3 value of sample well - G0 value)/(G3 value of DMSO control - G0 value).

DB cells = assay: BTK (wt) cell proliferation, DB (CellTiter-Glo, 72 h); settings: Homo sapiens, DB, DB cells, CellTiter-Glo, read-out: Non-BCR activated DB GI50;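 note: DB cells in 384-well plates given a dilution series of compound, viable cells read by ATP luminescence, growth expressed versus DMSO control after subtracting a time-zero plate reading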

| Structure (SMILES) | IC50 [1] [nM] | IC50 [2] [nM] | IC50 (EGFR L858R&T790M) [nM] | IC50 [3] [nM] | IC50 (WT EGFR) [nM] | GI50 (Ba/F3 EGFR NPH ins cells) [nM] | GI50 (Ba/F3 EGFR ASV ins cells) [nM] | GI50 [4] [nM] | GI50 (WT EGFR cell line A-431) [nM] | GI50 (OCI-LY-10 cells) [nM] | GI50 [5] [nM] | GI50 (TMD-8 cells) [nM] | GI50 (Ri-1 cells) [nM] | GI50 (DB cells) [nM] |
| --- | --- | --- | --- | --- | --- | --- | --- | --- | --- | --- | --- | --- | --- | --- |
| C=CC(=O)Nc1cc(Nc2ncc(Cl)c(Nc3cc(Cl)c(F)cc3C(C)(C)O)n2)c(OC)cc1N1CC[C@@H](N(C)C)C1 [Compound 74, (R)-N-(5-(5-chloro-4-(5-chloro-4-fluoro-2-(2-hydroxypropan-2-yl)phenylamino)pyrimidin-2-ylamino)-2-(3-(dimethylamino)pyrrolidin-1-yl)-4-methoxyphenyl) acrylamide] | 65.1 | 34.4 | 0.4 | 52.6 | 133 | 76.8 | 86.6 | 6 | 43 | 3.9 | 155 | 9.1 | 82 | > 3000 |
| C=CC(=O)Nc1cc(Nc2ncc(C(F)(F)F)c(Nc3cc(Cl)c(F)cc3C(C)(C)O)n2)c(OC)cc1N1CC[C@@H](N(C)C)C1 [Compound 84, (R)-N-(5-(4-(5-chloro-4-fluoro-2-(2-hydroxypropan-2-yl)phenylamino)-5-(trifluoromethyl)pyrimidin-2-ylamino)-2-(3-(dimethylamino)pyrrolidin-1-yl)-4-methoxyphenyl)acrylamide] | 259 | 116 | 0.4 | 1560 | 604 | 191 | 450 | 19.1 | 232 | 31.2 | 341 | 39.8 | 137 | > 3000 |
| C=CC(=O)Nc1cc(Nc2ncc(C#N)c(Nc3cc(Cl)c(F)cc3C(C)(C)O)n2)c(OC)cc1N1CC[C@@H](N(C)C)C1 [Compound 85, (R)-N (5-(4-(5-chloro-4-fluoro-2-(2-hydroxypropan-2-yl)phenylamino)-5-cyanopyrimidin-2-ylamino)-2-(3-(dimethylamino)pyrrolidin-1-yl)-4-methoxyphenyl)acrylamide] | 35.5 | 32.1 | 0.5 | 71.6 | 68.5 | 63.1 | 80.7 | 22.4 | 51.1 | 1.1 | 129 | 2.6 | 11 | > 3000 |

Now those with a lower IC50 [1], led by results:

| IC50 [1] [nM] | IC50 [2] [nM] | IC50 (EGFR L858R&T790M) [nM] | IC50 [3] [nM] | IC50 (WT EGFR) [nM] | GI50 (Ba/F3 EGFR NPH ins cells) [nM] | GI50 (Ba/F3 EGFR ASV ins cells) [nM] | GI50 [4] [nM] | GI50 (WT EGFR cell line A-431) [nM] | GI50 (OCI-LY-10 cells) [nM] | Structure (SMILES) | GI50 [5] [nM] | GI50 (TMD-8 cells) [nM] | GI50 (Ri-1 cells) [nM] | GI50 (DB cells) [nM] |
| --- | --- | --- | --- | --- | --- | --- | --- | --- | --- | --- | --- | --- | --- | --- |
| 27.9 | 18.5 | 3.7 | 10.8 | 42.6 | 73 | 90.6 | 19.2 | 11.6 | 45.5 | C=CC(=O)Nc1cc(Nc2ncnc(Nc3cc(C4CC4)c(F)cc3C(C)(C)O)n2)c(OC)cc1N(C)CCN(C)C [Compound 75, N-(5-(4-(5-cyclopropyl-4-fluoro-2-(2-hydroxypropan-2-yl)phenylamino)-1,3,5-triazin-2-ylamino)-2-((2-(dimethylamino)ethyl)(methyl)amino)-4-methoxyphenyl)acrylamide] | 29.9 | 133 | 250 | > 3000 |
| 13.8 | 17.2 | 0.9 | 7 | 97.8 | 35.8 | 77.7 | 3.6 | 42 | 76.1 | C=CC(=O)Nc1cc(Nc2nccc(Nc3cc(Cl)c(F)cc3C(C)(C)O)n2)c(OC)cc1N1CC(F)(F)C[C@@H]1CN(C)C [Compound 82, (R)-N-(5-(4-(5-chloro-4-fluoro-2-(2-hydroxypropan-2-yl)phenylamino)pyrimidin-2-ylamino)-2-(2-((dimethylamino)methyl)-4,4-difluoropyrrolidin-1-yl)-4-methoxyphenyl)acrylamide] | 82.4 | 203 | 310 | > 3000 |
